The results in this text go back to ChEMBL document CHEMBL2074197, “Molecular and functional characterization of an organic anion transporting polypeptide cloned from human liver” (Gastroenterology, 1995).

Each structure is given as a SMILES string.

The target in data set [1] is T1, Solute carrier organic anion transporter family member 1A2 (Homo sapiens, UniProt P46721).
T1 sequence (P46721 whole entry): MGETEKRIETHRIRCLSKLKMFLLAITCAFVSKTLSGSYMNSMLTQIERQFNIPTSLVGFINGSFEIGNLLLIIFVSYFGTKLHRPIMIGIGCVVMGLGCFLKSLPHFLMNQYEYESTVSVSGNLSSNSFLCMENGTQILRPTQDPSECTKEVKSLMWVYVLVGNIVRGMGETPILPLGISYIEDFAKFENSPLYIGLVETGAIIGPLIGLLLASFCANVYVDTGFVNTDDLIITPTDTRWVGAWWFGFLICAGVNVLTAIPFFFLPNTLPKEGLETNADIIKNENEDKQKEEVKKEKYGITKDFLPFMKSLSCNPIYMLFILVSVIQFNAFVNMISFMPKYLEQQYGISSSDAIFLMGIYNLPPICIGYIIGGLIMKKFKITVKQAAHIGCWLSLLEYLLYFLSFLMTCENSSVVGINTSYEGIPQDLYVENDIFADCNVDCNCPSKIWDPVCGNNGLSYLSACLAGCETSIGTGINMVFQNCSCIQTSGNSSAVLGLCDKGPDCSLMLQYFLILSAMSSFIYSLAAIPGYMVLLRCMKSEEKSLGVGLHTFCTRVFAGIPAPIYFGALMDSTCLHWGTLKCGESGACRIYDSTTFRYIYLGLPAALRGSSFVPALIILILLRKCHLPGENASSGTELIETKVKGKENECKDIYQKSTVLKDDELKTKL
In words: TP_TRANSPORTER: inhibition of Taurocholate uptake (Taurochorate: 10 uM, UDCA: 200 uM) in Xenopus laevis oocytes. Details: scale not given: the % may be the effect or the level left. It is filed as functional, cell-based. As to conditions: oocyte.

For data set [2], the target named is T2, Solute carrier organic anion transporter family member 1A2 (OATP1A2) (Homo sapiens, UniProt P46721).
T2 sequence (P46721 whole entry): T1 sequence (P46721 whole entry)
In words: TP_TRANSPORTER: inhibition of BSP uptake (BSP: 10 uM, UDCA: 100 uM) in Xenopus laevis oocytes. It counts as functional, cell-based, Oocyte. Details: scale not given: the % may be the effect or the level left. As to conditions: Xenopus laevis oocytes expressing OATP1A2 (SLCO1A2), probe BSP (sulfobromophthalein), read-out: Activity.

For data set [3], the target named is T2, Solute carrier organic anion transporter family member 1A2 (OATP1A2). Briefly: TP_TRANSPORTER: inhibition of BSP uptake (BSP: 10 uM, TCDC: 100 uM) in Xenopus laevis oocytes. Details: scale not given: the % may be the effect or the level left. Particulars: Xenopus laevis oocytes expressing OATP1A2 (SLCO1A2), probe BSP (sulfobromophthalein), read-out: Activity. It counts as functional, cell-based, Oocyte.

For data set [4] the target is unchanged. Briefly: TP_TRANSPORTER: inhibition of Taurocholate uptake (Taurochorate: 10 uM, TCDC: 100 uM) in Xenopus laevis oocytes. Particulars: Xenopus laevis oocytes expressing OATP1A2 (SLCO1A2), probe taurocholate, read-out: Activity. It is filed as functional, cell-based, Oocyte. Details: scale not given: the % may be the effect or the level left.
The target is the same in data set [5]. In words: TP_TRANSPORTER: inhibition of BSP uptake (BSP: 10 uM, ICG: 100 uM) in Xenopus laevis oocytes. As to conditions: Xenopus laevis oocytes expressing OATP1A2 (SLCO1A2), probe BSP (sulfobromophthalein), read-out: Activity. Details: scale not given: the % may be the effect or the level left. It counts as functional, cell-based, Oocyte.
Data set [6] shares this target. In words: TP_TRANSPORTER: inhibition of Taurocholate uptake (Taurochorate: 10 uM, ICG: 100 uM) in Xenopus laevis oocytes. It is filed as functional, cell-based, Oocyte. Details: scale not given: the % may be the effect or the level left. As to conditions: Xenopus laevis oocytes expressing OATP1A2 (SLCO1A2), probe taurocholate, read-out: Activity.
Data set [7] has as its target T1, Solute carrier organic anion transporter family member 1A2. Briefly: TP_TRANSPORTER: inhibition of BSP uptake (BSP: 10 uM, CDCA: 200 uM) in Xenopus laevis oocytes. It is filed as functional, cell-based. Details: scale not given: the % may be the effect or the level left. As to conditions: oocyte.
Data set [8] has the same target. In words: TP_TRANSPORTER: inhibition of Taurocholate uptake (Taurochorate: 10 uM, CDCA: 200 uM) in Xenopus laevis oocytes. It is filed as functional, cell-based. Details: scale not given: the % may be the effect or the level left. As to conditions: oocyte.
The target in data set [9] is T2, Solute carrier organic anion transporter family member 1A2 (OATP1A2). In words: TP_TRANSPORTER: inhibition of Taurocholate uptake (Taurochorate: 10 uM, GC: 200 uM) in Xenopus laevis oocytes. As to conditions: Xenopus laevis oocytes expressing OATP1A2 (SLCO1A2), probe taurocholate, read-out: Activity. Details: scale not given: the % may be the effect or the level left. It is filed as functional, cell-based, Oocyte.

Data set [10] has as its target T1, Solute carrier organic anion transporter family member 1A2. In words: TP_TRANSPORTER: inhibition of BSP uptake (BSP: 10 uM, GC: 100 uM) in Xenopus laevis oocytes. Details: scale not given: the % may be the effect or the level left. As to conditions: oocyte. It counts as functional, cell-based.
Data set [11] concerns the target T2, Solute carrier organic anion transporter family member 1A2 (OATP1A2). In words: TP_TRANSPORTER: inhibition of Taurocholate uptake (Taurochorate: 10 uM, TUDC: 100 uM) in Xenopus laevis oocytes. It is filed as functional, cell-based, Oocyte. Details: scale not given: the % may be the effect or the level left. As to conditions: Xenopus laevis oocytes expressing OATP1A2 (SLCO1A2), probe taurocholate, read-out: Activity.

Data set [12] has the same target. In words: TP_TRANSPORTER: uptake in Xenopus laevis oocytes. It counts as functional, cell-based, Oocyte. Particulars: Xenopus laevis oocytes expressing OATP1A2 (SLCO1A2).
The target is the same in data set [13]. Briefly: TP_TRANSPORTER: inhibition of BSP uptake (BSP: 10 uM, TUDC: 100 uM) in Xenopus laevis oocytes. It is filed as functional, cell-based, Oocyte. Details: scale not given: the % may be the effect or the level left. As to conditions: Xenopus laevis oocytes expressing OATP1A2 (SLCO1A2), probe BSP (sulfobromophthalein), read-out: Activity.

Compound `C[C@H](CCC(=O)O)[C@H]1CC[C@H]2[C@@H]3[C@@H](O)C[C@@H]4C[C@H](O)CC[C@]4(C)[C@H]3CC[C@]12C` [URSODIOL] had an Activity in data set [1] of 14%. The activity at 100 µM in [2] came out at 57%.
With `C[C@H](CCC(=O)NCCS(=O)(=O)O)[C@H]1CC[C@H]2[C@@H]3[C@H](O)C[C@@H]4C[C@H](O)CC[C@]4(C)[C@H]3CC[C@]12C` [TAUROCHENODEOXYCHOLATE], the activity at 100 µM in data set [3] was found to be 17%; in [4] it was 28%.
Consider `CC1(C)C(/C=C/C=C/C=C/C=C2\N(CCCCS(=O)(=O)O)c3ccc4ccccc4c3C2(C)C)=[N+](CCCCS(=O)(=O)[O-])c2ccc3ccccc3c21` [INDOCYANINE GREEN], for which the activity at 100 µM was found to be 60% in data set [5] and 28% in [6].
As to `C[C@H](CCC(=O)O)[C@H]1CC[C@H]2[C@@H]3[C@H](O)C[C@@H]4C[C@H](O)CC[C@]4(C)[C@H]3CC[C@]12C` [CHENODIOL], the values for the Activity in [7] and in data set [8] were 34% and 15%, respectively.
As for `C[C@H](CCC(=O)NCC(=O)O)[C@H]1CC[C@H]2[C@@H]3[C@H](O)C[C@@H]4C[C@H](O)CC[C@]4(C)[C@H]3C[C@H](O)[C@]12C` [GLYCOCHOLIC ACID], the activity at 200 µM in [9] was 24%. Further, in [10], the Activity was 81%.
For orientation: Km means the substrate concentration at which the rate is half of its maximum. Regarding `C[C@H](CCC(=O)NCCS(=O)(=O)O)[C@H]1CC[C@H]2[C@@H]3[C@@H](O)C[C@@H]4C[C@H](O)CC[C@]4(C)[C@H]3CC[C@]12C` [TAURURSODIOL], the activity at 100 µM in data set [11] and in data set [13] was 9% in each case. For the same compound, the Km in data set [12] was found to be 19 µM.
`O=C1OC(c2ccc(O)c(S(=O)(=O)O)c2)(c2ccc(O)c(S(=O)(=O)O)c2)c2c(Br)c(Br)c(Br)c(Br)c21` [SULFOBROMOPHTHALEIN SODIUM]: the Michaelis-Menten constant (Km) in [12] turned out to be 20 µM.
